Assay results: BindingDB's records for patent US11440904 (2022)

Target: Tyrosine-protein kinase BTK (Homo sapiens, UniProt Q06187)
Sequence (Q06187 whole entry): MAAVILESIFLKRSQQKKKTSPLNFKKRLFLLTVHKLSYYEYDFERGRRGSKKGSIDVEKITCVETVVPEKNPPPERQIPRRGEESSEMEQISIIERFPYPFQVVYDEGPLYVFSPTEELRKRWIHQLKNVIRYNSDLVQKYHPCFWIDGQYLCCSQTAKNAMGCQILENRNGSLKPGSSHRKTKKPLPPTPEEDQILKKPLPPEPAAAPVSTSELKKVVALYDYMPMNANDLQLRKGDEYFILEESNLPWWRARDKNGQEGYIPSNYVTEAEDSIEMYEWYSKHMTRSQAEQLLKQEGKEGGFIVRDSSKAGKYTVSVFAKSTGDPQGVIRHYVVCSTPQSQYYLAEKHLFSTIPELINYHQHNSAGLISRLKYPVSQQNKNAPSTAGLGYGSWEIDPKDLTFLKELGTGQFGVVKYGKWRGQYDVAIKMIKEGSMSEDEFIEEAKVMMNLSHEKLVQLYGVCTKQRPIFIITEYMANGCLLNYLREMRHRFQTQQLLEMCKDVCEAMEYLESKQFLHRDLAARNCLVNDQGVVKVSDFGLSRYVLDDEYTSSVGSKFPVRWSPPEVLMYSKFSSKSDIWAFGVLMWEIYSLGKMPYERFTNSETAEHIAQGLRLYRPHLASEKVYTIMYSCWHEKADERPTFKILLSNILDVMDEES
Method: Then, Kinase assays were performed using the HotSpot assay platform.Briefly, specific kinase/substrate pairs along with required cofactors were prepared in reaction buffer; 20 mM Hepes pH 7.5, 10 mM MgCl2, 1 mM EGTA, 0.02% Brij35, 0.02 mg/ml BSA, 0.1 mM Na3VO4, 2 mM DTT, 1% DMSO. Compounds were delivered into the reaction, followed about 20 minutes later by addition of a mixture of ATP (Sigma, St. Louis Mo.) and 33P ATP (Perkin Elmer, Waltham Mass.) to a final concentration of 10 μM.Reactions were carried out at room temperature for 120 min, followed by spotting of the reactions onto P81 ion exchange filter paper (Whatman Inc., Piscataway, N.J.). Unbound phosphate was removed by extensive washing of filters in 0.75% phosphoric acid. […] IC50 values and curve fits were obtained using Prism (GraphPad Software).

`C=CC(=O)Nc1ccccc1Nc1nc(Nc2ccc(OCCCOC3(CC)OCC(C)(C)CO3)cc2)ncc1F` [US11440904, Compound 9] was tested, and the IC50 was > 100 nM.
